Results published in the kinase profiling compilation of Christmann-Franck et al. (2016).
Where “and” joins values, the source holds several entries; their conditions need not be identical. Equal values may be shown once.

Legend:
Assay in all cases: radiometric filter-binding kinase assay, Kinase HotSpot
Conditions in all cases: compound 0.5 µM; ATP 10 µM
CDK6 CCND1 (human) = CDK6 CCND1 (human) (UniProt Q00534+P24385)
LYN (human) = LYN (human) (UniProt P07948)
EPHA1 (human) = EPHA1 (human) (UniProt P21709)
DMPK (human) = DMPK (human) (UniProt Q09013)
FYN (human) = FYN (human) (UniProt P06241)
STK16 (human) = STK16 (human) (UniProt O75716)
SYK (human) = SYK (human) (UniProt P43405)
BMX (human) = BMX (human) (UniProt P51813)
DCLK2 (human) = DCLK2 (human) (UniProt Q8N568)
PRKCD (human) = PRKCD (human) (UniProt Q05655)
TSSK2 (human) = TSSK2 (human) (UniProt Q96PF2)
Chain of TSSK2 (human) (Q96PF2 whole entry, looked up): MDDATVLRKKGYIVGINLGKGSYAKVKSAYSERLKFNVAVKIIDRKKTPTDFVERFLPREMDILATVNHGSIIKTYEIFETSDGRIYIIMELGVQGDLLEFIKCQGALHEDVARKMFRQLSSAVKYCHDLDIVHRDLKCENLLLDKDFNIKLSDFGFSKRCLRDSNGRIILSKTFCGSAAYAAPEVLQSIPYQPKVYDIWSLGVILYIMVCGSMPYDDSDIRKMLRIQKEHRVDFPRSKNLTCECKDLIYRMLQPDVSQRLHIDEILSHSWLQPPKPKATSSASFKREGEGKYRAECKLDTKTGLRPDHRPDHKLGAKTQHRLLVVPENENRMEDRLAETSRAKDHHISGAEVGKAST

PRKG1 (human) = PRKG1 (human) (UniProt Q13976)
Chain of PRKG1 (human) (Q13976 whole entry, looked up): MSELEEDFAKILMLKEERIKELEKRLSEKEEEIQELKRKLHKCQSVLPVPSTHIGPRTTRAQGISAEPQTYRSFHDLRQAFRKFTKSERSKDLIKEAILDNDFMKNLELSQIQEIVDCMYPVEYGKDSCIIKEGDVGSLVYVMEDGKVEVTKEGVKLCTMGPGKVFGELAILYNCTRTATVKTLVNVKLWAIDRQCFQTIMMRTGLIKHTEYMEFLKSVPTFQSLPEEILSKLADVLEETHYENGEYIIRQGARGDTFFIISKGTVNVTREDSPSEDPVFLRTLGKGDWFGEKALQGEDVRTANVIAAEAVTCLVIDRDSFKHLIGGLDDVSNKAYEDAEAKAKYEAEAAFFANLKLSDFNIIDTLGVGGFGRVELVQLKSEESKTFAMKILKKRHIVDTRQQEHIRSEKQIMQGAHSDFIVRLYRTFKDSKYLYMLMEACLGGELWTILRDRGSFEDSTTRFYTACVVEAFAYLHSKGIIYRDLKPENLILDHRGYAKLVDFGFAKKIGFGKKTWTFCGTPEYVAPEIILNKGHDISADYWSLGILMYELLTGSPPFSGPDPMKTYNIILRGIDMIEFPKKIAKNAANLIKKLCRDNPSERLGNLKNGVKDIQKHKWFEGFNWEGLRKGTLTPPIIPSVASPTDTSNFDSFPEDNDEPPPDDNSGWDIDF

NEK4 (human) = NEK4 (human) (UniProt P51957)
EGFR (human) = EGFR (human) (UniProt P00533)
GRK6 (human) = GRK6 (human) (UniProt P43250)
STK17A (human) = STK17A (human) (UniProt Q9UEE5)
Chain of STK17A (human) (Q9UEE5 whole entry, looked up): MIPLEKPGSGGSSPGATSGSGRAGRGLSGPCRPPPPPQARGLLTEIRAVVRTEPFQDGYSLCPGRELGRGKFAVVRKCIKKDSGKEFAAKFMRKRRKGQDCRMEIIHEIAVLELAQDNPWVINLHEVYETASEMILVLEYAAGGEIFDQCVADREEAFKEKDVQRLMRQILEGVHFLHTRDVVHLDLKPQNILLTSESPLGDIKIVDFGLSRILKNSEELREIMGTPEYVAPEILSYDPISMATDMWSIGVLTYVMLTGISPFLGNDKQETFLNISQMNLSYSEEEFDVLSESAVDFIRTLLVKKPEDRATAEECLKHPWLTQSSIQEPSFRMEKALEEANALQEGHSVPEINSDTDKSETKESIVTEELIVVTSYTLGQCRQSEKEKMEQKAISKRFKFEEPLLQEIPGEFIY

NEK11 (human) = NEK11 (human) (UniProt Q8NG66)
AXL (human) = AXL (human) (UniProt P30530)
STK33 (human) = STK33 (human) (UniProt Q9BYT3)
CDK2 CCNE1 (human) = CDK2 CCNE1 (human) (UniProt P24941+P24864)
GSG2 (human) = GSG2 (human) (UniProt Q8TF76)
TSSK1B (human) = TSSK1B (human) (UniProt Q9BXA7)
Chain of TSSK1B (human) (Q9BXA7 whole entry, looked up): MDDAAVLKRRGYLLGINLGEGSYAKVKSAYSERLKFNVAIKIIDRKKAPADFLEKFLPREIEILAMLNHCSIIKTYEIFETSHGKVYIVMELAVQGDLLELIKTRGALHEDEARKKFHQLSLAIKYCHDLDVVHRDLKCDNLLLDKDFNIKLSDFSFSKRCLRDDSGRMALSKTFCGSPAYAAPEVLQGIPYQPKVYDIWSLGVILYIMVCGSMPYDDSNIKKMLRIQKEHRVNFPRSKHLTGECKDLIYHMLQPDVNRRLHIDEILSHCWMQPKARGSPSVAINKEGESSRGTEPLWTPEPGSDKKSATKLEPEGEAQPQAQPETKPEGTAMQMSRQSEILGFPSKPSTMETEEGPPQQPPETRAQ

PRKCH (human) = PRKCH (human) (UniProt P24723)
MAP4K4 (human) = MAP4K4 (human) (UniProt O95819)
MAP3K7 TAB1 (human) = MAP3K7 TAB1 (human) (UniProt O43318+Q15750)
ZAP70 (human) = ZAP70 (human) (UniProt P43403)
MARK3 (human) = MARK3 (human) (UniProt P27448)
TAOK2 (human) = TAOK2 (human) (UniProt Q9UL54)
IRAK1 (human) = IRAK1 (human) (UniProt P51617)
EPHA7 (human) = EPHA7 (human) (UniProt Q15375)
MARK2 (human) = MARK2 (human) (UniProt Q7KZI7)
Chain of MARK2 (human) (Q7KZI7 whole entry, looked up): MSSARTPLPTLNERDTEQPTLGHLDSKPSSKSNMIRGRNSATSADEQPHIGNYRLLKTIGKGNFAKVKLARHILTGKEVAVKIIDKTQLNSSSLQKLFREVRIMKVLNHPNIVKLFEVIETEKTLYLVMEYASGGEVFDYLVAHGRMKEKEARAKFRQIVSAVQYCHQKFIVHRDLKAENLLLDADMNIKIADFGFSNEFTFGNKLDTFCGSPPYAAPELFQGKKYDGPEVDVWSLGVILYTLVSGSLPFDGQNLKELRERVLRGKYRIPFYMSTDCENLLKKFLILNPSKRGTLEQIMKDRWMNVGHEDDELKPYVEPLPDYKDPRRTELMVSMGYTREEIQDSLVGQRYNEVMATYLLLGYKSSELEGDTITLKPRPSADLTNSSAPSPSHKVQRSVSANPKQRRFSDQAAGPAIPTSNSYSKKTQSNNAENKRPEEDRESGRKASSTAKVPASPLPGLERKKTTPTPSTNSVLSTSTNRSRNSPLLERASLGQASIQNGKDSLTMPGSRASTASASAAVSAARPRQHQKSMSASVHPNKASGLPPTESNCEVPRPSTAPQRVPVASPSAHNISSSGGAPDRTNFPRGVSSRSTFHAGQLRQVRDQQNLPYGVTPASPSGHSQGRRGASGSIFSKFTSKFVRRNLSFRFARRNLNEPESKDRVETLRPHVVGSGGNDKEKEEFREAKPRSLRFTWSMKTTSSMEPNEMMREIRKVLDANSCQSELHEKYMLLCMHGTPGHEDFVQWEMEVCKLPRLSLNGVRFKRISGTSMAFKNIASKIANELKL

RAF1 (human) = RAF1 (human) (UniProt P04049)
Chain of RAF1 (human) (P04049 whole entry, looked up): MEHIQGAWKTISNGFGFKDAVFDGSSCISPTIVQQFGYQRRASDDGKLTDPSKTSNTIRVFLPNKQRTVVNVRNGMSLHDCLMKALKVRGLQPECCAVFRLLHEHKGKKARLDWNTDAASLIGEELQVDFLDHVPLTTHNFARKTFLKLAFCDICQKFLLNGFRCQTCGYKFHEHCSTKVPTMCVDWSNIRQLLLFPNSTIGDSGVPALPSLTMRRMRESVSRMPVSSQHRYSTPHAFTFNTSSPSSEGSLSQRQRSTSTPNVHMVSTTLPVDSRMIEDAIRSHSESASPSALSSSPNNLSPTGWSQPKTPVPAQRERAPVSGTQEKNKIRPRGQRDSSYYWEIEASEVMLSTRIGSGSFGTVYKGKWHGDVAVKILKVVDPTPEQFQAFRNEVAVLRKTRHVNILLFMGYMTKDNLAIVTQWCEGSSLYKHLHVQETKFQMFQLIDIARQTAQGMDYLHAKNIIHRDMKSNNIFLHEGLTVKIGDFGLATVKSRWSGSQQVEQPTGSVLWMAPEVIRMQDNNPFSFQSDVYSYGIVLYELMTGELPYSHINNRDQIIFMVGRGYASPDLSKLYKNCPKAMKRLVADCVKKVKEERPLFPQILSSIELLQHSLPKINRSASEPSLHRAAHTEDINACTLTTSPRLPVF

PIM1 (human) = PIM1 (human) (UniProt P11309)
MAP3K2 (human) = MAP3K2 (human) (UniProt Q9Y2U5)
PRKCI (human) = PRKCI (human) (UniProt P41743)
CAMKK2 (human) = CAMKK2 (human) (UniProt Q96RR4)
PASK (human) = PASK (human) (UniProt Q96RG2)
BRSK1 (human) = BRSK1 (human) (UniProt Q8TDC3)
CSNK1D (human) = CSNK1D (human) (UniProt P48730)
ADRBK1 (human) = ADRBK1 (human) (UniProt P25098)
Chain of ADRBK1 (human) (P25098 whole entry, looked up): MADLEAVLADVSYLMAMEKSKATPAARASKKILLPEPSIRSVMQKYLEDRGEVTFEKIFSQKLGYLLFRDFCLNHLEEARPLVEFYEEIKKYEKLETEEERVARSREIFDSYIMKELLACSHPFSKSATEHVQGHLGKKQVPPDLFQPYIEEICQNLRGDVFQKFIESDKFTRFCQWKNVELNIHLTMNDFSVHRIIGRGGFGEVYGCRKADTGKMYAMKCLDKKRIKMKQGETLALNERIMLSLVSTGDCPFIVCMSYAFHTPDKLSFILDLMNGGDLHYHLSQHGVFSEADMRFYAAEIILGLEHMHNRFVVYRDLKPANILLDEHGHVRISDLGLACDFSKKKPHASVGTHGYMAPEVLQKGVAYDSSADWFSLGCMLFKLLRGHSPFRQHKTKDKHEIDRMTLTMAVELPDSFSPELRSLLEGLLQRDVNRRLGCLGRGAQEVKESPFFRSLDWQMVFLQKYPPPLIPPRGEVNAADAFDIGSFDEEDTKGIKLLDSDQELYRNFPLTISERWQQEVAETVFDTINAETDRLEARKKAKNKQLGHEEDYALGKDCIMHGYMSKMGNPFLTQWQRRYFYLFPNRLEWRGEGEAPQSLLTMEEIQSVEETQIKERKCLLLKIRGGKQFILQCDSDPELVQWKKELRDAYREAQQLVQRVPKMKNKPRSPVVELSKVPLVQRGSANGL

MAP2K2 (human) = MAP2K2 (human) (UniProt P36507)
Chain of MAP2K2 (human) (P36507 whole entry, looked up): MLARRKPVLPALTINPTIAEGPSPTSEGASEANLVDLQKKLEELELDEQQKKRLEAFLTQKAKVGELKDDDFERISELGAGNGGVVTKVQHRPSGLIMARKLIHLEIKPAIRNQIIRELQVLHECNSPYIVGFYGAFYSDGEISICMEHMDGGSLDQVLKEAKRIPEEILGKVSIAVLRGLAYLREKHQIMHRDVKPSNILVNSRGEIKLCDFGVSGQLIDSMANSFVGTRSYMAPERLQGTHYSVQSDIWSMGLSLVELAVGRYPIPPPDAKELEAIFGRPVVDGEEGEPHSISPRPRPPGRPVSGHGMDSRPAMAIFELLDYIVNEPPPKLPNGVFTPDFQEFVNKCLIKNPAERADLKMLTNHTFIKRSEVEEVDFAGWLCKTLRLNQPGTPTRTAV

OXSR1 (human) = OXSR1 (human) (UniProt O95747)

Chain of LYN (human) (P07948 whole entry, looked up): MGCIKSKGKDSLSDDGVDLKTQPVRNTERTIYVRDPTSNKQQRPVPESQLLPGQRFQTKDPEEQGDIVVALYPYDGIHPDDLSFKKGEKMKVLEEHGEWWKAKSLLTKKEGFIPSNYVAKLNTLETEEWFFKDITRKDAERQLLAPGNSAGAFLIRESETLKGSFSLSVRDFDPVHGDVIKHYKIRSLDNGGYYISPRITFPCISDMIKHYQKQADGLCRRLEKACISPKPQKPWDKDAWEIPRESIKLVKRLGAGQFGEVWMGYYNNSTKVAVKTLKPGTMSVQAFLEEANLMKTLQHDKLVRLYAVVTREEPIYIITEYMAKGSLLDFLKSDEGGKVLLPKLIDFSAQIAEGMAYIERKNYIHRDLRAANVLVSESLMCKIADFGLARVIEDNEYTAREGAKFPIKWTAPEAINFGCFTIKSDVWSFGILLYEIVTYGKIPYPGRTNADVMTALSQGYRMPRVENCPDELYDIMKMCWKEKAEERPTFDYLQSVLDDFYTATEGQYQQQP

`COc1cc2ncc(-c3ccccc3)nc2cc1OC` was tested, and the residual activity (CDK6 CCND1 (human)) was 94.1%, the residual activity (LYN (human)) was 90.4% and 96.9% and the residual activity (EPHA1 (human)) was 95.8%. The residual activity (DMPK (human)) was 103%, the residual activity (FYN (human)) was 100% and the residual activity (STK16 (human)) was 93.5%. The residual activity (SYK (human)) was 92.5%, the residual activity (BMX (human)) was 92.2% and the residual activity (DCLK2 (human)) was 96%. For the same molecule, the residual activity (PRKCD (human)) was 82.2%, the residual activity (TSSK2 (human)) was 85.7% and the residual activity (PRKG1 (human)) was 77.1% and 96.2%. For the same molecule, the residual activity (NEK4 (human)) was 101%, the residual activity (EGFR (human)) was 82.9% and the residual activity (GRK6 (human)) was 92.8%. The residual activity (STK17A (human)) was 95.5%, the residual activity (NEK11 (human)) was 114% and the residual activity (AXL (human)) was 95.2%. It also gave a residual activity (STK33 (human)) of 91.7%, a residual activity (CDK2 CCNE1 (human)) of 85.4% and a residual activity (GSG2 (human)) of 92.1%. It also gave a residual activity (TSSK1B (human)) of 94.5%, a residual activity (PRKCH (human)) of 107% and a residual activity (MAP4K4 (human)) of 62.1%. The residual activity (MAP3K7 TAB1 (human)) was 92.8%, the residual activity (ZAP70 (human)) was 98.6% and the residual activity (MARK3 (human)) was 98.2%. The residual activity (TAOK2 (human)) was 95.9%, the residual activity (IRAK1 (human)) was 98.4% and the residual activity (EPHA7 (human)) was 94.7%. The residual activity (MARK2 (human)) was 112%, the residual activity (RAF1 (human)) was 106% and the residual activity (PIM1 (human)) was 95.9%. It also gave a residual activity (MAP3K2 (human)) of 92.5%, a residual activity (PRKCI (human)) of 82.1% and a residual activity (CAMKK2 (human)) of 114%. The residual activity (PASK (human)) was 98.9%, the residual activity (BRSK1 (human)) was 102% and the residual activity (CSNK1D (human)) was 101%. It also gave a residual activity (ADRBK1 (human)) of 95.8%, a residual activity (MAP2K2 (human)) of 102% and a residual activity (OXSR1 (human)) of 100%.
For `CN([C@@H](Cc1ccc(OS(=O)(=O)c2cccc3cnccc23)cc1)C(=O)N1CCN(c2ccccc2)CC1)S(=O)(=O)c1cccc2cnccc12`, the residual activity (CDK6 CCND1 (human)) was 91.6%, the residual activity (LYN (human)) was 101% and 92.1% and the residual activity (EPHA1 (human)) was 102%. For the same molecule, the residual activity (DMPK (human)) was 108%, the residual activity (FYN (human)) was 101% and the residual activity (STK16 (human)) was 104%. For the same molecule, the residual activity (SYK (human)) was 98.7%, the residual activity (BMX (human)) was 97.4% and the residual activity (DCLK2 (human)) was 94.1%. For the same molecule, the residual activity (PRKCD (human)) was 93%, the residual activity (TSSK2 (human)) was 105% and the residual activity (PRKG1 (human)) was 84.2% and 93.6%. For the same molecule, the residual activity (NEK4 (human)) was 99.5%, the residual activity (EGFR (human)) was 89.4% and the residual activity (GRK6 (human)) was 101%. It also gave a residual activity (STK17A (human)) of 104%, a residual activity (NEK11 (human)) of 103% and a residual activity (AXL (human)) of 103%. For the same molecule, the residual activity (STK33 (human)) was 97.3%, the residual activity (CDK2 CCNE1 (human)) was 94.9% and the residual activity (GSG2 (human)) was 94.7%. The residual activity (TSSK1B (human)) was 95.4%, the residual activity (PRKCH (human)) was 89.8% and the residual activity (MAP4K4 (human)) was 94.8%. The residual activity (MAP3K7 TAB1 (human)) was 93.4%, the residual activity (ZAP70 (human)) was 99.5% and the residual activity (MARK3 (human)) was 93.7%. It also gave a residual activity (TAOK2 (human)) of 98.3%, a residual activity (IRAK1 (human)) of 95.4% and a residual activity (EPHA7 (human)) of 102%. For the same molecule, the residual activity (MARK2 (human)) was 103%, the residual activity (RAF1 (human)) was 96.9% and the residual activity (PIM1 (human)) was 106%. For the same molecule, the residual activity (MAP3K2 (human)) was 98.9%, the residual activity (PRKCI (human)) was 93.8% and the residual activity (CAMKK2 (human)) was 84.2%. For the same molecule, the residual activity (PASK (human)) was 103%, the residual activity (BRSK1 (human)) was 96.4% and the residual activity (CSNK1D (human)) was 109%. For the same molecule, the residual activity (ADRBK1 (human)) was 97.5%, the residual activity (MAP2K2 (human)) was 119% and the residual activity (OXSR1 (human)) was 101%.
